Values quoted from earlier work as cited in patent US7641924B2, “Nutritional composition for controlling blood sugar level” (Meiji Dairies Corporation, priority 2001, dated 2010).

Key:
[1] = target: isomaltase in the small intestine (Homo sapiens, UniProt P14410)
[2] = in vivo

Sequence of isomaltase in the small intestine (P14410 whole entry): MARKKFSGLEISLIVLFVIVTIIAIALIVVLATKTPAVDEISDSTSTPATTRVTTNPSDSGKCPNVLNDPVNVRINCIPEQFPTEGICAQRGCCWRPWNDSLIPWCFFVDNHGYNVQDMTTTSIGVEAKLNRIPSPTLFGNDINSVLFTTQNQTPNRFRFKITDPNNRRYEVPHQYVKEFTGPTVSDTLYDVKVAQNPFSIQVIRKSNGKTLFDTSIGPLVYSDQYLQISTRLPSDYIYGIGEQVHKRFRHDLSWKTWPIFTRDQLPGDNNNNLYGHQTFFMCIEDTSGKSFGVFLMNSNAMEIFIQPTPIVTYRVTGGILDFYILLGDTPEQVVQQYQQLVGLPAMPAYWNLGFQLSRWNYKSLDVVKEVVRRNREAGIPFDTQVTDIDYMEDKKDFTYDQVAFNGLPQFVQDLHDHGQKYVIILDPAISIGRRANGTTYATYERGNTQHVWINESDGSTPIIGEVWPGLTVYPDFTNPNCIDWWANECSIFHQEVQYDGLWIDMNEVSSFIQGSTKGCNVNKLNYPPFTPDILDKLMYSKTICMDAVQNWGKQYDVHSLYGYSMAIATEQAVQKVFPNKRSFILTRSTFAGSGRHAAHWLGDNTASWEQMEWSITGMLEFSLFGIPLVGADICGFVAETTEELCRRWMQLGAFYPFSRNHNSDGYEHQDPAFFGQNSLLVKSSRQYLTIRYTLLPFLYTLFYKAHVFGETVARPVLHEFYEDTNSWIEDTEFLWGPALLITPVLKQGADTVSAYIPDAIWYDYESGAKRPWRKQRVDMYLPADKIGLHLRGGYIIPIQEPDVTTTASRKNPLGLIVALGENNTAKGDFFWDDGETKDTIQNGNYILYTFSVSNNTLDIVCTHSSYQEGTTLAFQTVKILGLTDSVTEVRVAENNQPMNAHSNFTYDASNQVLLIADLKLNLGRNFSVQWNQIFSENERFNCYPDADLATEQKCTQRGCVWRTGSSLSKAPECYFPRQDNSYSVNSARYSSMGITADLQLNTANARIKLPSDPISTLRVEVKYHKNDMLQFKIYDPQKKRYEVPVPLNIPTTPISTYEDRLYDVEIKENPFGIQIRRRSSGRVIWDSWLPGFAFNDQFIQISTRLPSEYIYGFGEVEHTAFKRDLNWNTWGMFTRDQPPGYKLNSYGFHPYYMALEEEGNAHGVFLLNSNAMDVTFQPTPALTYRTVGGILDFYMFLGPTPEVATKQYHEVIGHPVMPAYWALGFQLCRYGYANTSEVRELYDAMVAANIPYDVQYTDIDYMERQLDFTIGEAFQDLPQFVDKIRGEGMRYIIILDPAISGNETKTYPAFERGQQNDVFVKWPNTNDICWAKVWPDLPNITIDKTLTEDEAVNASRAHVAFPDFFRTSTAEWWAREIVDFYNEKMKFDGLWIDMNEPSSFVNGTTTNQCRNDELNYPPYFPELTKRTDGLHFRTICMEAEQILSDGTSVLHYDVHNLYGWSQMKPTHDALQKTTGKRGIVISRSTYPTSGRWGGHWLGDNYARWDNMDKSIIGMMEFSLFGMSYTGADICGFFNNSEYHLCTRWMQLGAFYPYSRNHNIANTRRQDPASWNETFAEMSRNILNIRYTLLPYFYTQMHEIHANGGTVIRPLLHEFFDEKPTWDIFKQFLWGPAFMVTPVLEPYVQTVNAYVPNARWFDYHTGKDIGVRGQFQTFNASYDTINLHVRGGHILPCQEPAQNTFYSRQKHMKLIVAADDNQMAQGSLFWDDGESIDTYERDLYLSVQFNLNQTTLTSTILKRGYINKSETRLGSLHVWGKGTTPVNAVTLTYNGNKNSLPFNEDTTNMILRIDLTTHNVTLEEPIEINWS

| hydrolysis rate relative to that of palatinose ([1]; small intestine) | Molecule | hydrolysis rate relative to that of sucrose [1] | blood glucose level after intake [2] | insulin level after intake [2] |
| --- | --- | --- | --- | --- |
| about 2 times | Trehalulose | one third | – | – |
| – | OC[C@H]1O[C@H](OC[C@H]2OC(O)(CO)[C@@H](O)[C@@H]2O)[C@H](O)[C@@H](O)[C@@H]1O (some centres unmarked) [palatinose, Palatinose] | one fifth | maintained at predetermined levels over many hours | maintained at predetermined levels over many hours |
